Measurements: US9988375B2, “Inhibitors of lysine gingipain” (priority 2014, dated 2018)
“Also recorded” adds a separate entry of the source. Where two headings read alike, the source gives them in different places.

What was measured:
lysine gingipain (Kgp) = lysine gingipain (Kgp) (Porphyromonas gingivalis (strain ATCC 33277 / DSM 20709 / CIP 103683 / JCM 12257 / NCTC 11834 / 2561), UniProt B2RLK2); assay: Lysine gingipain (Kgp) fluorogenic inhibition assay; type: biochemical
Procedure: The capacities of compounds of the present invention to inhibit the activity of lysine gingipain were measured in a fluorogenic assay similar to those described in Barret Biochemical Journal. 1980, 187(3), 909. The specific assay conditions were as follows. Buffer: pH=7.5, 100 mM Tris-HCl, 75 mM NaCl, 2.5 mM CaCl2, 10 mM cysteine, 1% DMSO after all additions. Protein: 0.1 nM Kgp, isolated from culture of Porphyromonas gingivalis, as described in Pike et al. J. Biol. Chem. 1994, 269(1), 406, and Potempa and Nguyen. Current Protocols in Protein Scienc. 2007, 21.20.1-21.20.27. Fluorogenic substrate: 10 uM Z-His-Glu-Lys-MCA. Time=90 minutes. Temperature=37° C. Each compound: 10 concentrations, starting at either 100 uM or 100 nM, with lower concentrations generated by serial 3-fold dilutions. By testing a range of concentrations for each compound, the concentration required to inhibit the activity of lysine gingipain by 50% (the “IC50”) was determined. Under the described assay conditions, signal-to-noise was excellent, and Z factor was greater than 0.6.
(§1) The inhibitory of activity of compounds described herein was tested against Kgp, RgpB, and trypsin.

RgpB = RgpB (Porphyromonas gingivalis (strain ATCC BAA-308 / W83), UniProt P95493); assay: RgpB inhibition; type: biochemical
Procedure: as §1

SHSY5Y cells = assay: P. gingivalis-induced toxicity in SHSY5Y cells in vitro; type: cell-based; conditions: compared to the antibiotic moxifloxacin
Kgp = Kgp (Porphyromonas gingivalis (strain ATCC 33277 / DSM 20709 / CIP 103683 / JCM 12257 / NCTC 11834 / 2561), UniProt B2RLK2); conditions: cited from earlier work
trypsin [1] = biological target: T1, trypsin (Homo sapiens (Human), UniProt P07477); conditions: cited from earlier work
trypsin [2] = biological target: T1, trypsin; assay: Trypsin inhibition; type: biochemical
Procedure: as §1

[3] = system: differentiated SHSY-5Y cells; assay: Gingipain-induced death of differentiated SH-SY5Y cells; type: cell-based; conditions: 100 nM Kgp and/or RgpB for 24 hours
Procedure: SH-SY5Y neuroblastoma cells were cultured and differentiated in the presence of 5 uM retinoic acid based on established methods [Saberi S., et al. Cell Mol Neurobiol 2013. 33: 747-751]. Differentiation into neuronal cells was verified by observation of neurite outgrowth. The differentiated cells were exposed to 100 nM Kgp and/or RgpB for 24 hours, in the presence or absence of Kgp inhibitors. Results were recorded using a digital microscope camera (FIG. 1C, FIG. 2C). Gingipains are toxic to cells while COR compounds prevent the cytotoxicity.

abeta 42 = assay: Brain abeta 42 ELISA in mice orally infected with P. gingivalis; type: in vivo, Balb/cJ mice; conditions: subcutaneously three times per day on days 21-42
Excerpt: Female Balb/cJ mice were obtained from Taconic and allowed to acclimate. 43-44 week old mice were challenged orally with 10^9 CFU W83 P. gingivalis or a P. gingivalis strain lacking expression of Kgp every other day for 42 days. Compound 2 or vehicle (2% DMSO) was given subcutaneously three times per day on days 21-42. On day 42 mice were sacrificed and the brain removed and frozen. A sample including hippocampal tissue was lysed in RIPA buffer with protease inhibitors and analyzed for Abeta42 expression with the Amyloid beta 42 ELISA Kit, Mouse (Life Technologies).

[4] = 0.1 nM Kgp, 10 uM Z-His-Glu-Lys-MCA, 90 minutes, 37° C., pH 7.5, read-out: Kgp IC50 average

**Q.** What does the source list for `NCCCC[C@H](NC(=O)C1CCCC1)C(=O)COc1c(F)c(F)cc(F)c1F` [Compound 43, N-[(1S)-5-amino-1-[2-(2,3,5,6-tetrafluorophenoxy)acetyl]pentyl]cyclo-pentanecarboxamide]?
**A.** IC50 (lysine gingipain (Kgp); [4]): ≤ 1 nM; lysine gingipain IC50 value (lysine gingipain (Kgp); in words): sub-nanomolar; IC50 (RgpB): > 475 nM; protection of SHSY5Y cells from P. gingivalis-induced toxicity (SHSY5Y cells): protects

**Q.** With `NCCC[C@H](NC(=O)C1CCCN(C(=O)CCc2ccccc2)C1)C(=O)c1nc2ccccc2s1` (mixture of isomers) [Compound A71561, 1-(3-phenylpropionyl)piperidine-3(R,S)-carboxylic acid [4-amino-1(S)-(benzothiazole-2-carbonyl)butyl]amide] as the compound, how does the Ki (Kgp) read?
**A.** Its Ki is 0.9 nM.

**Q.** What about the Ki (trypsin [1]) of the same compound?
**A.** Its Ki is 30 nM.

**Q.** Which IC50 (lysine gingipain (Kgp); read-out: Kgp IC50) does the source give for `NCCCC[C@H](NC(=O)C1CCCCC1)C(=O)c1nc2ccccc2s1` [Compound 2, N-[(1S)-5-amino-1-(1,3-benzothiazole-2-carbonyl)pentyl]cyclohexanecarboxamide] here?
**A.** The IC50 was 1 to 10 nM.

**Q.** What about the IC50 (trypsin [2]) of the same compound?
**A.** The IC50 was 5000 nM.

**Q.** What about the “prevention of gingipain-induced death of differentiated SHSY-5Y cells” value (shortened to “prevention … of differentiated SHSY-5Y cells”) [3] of the same compound?
**A.** Its value is “prevents; also recorded: more effective; also recorded: effective at preventing cell death”.

**Q.** And the “brain levels of abeta 42 (ELISA)” value (abeta 42)?
**A.** Its value is “resolved; also recorded: increase in abeta42 that was not apparently”.

**Q.** With `NCCCC[C@H](NC(=O)[C@@H]1CCCN(C(=O)CCc2ccccc2)C1)C(=O)c1nc2ccccc2s1` [Compound 4, (3R)—N-[(1S)-5-amino-1-(1,3-benzothiazole-2-carbonyl)pentyl]-1-(3-phenylpropanoyl)piperidine-3-carboxamide] as the compound, how does the IC50 (lysine gingipain (Kgp); [4]) read?
**A.** The IC50 was 1 to 10 nM.

**Q.** And the IC50 (lysine gingipain (Kgp); read-out: Kgp IC50)?
**A.** The IC50 was 1 to 10 nM.

**Q.** And the “prevention … of differentiated SHSY-5Y cells” value [3]?
**A.** Its value is “prevents”.

**Q.** What about the “prevention … of differentiated SHSY-5Y cells” value ([3]; listed as 2-(N—[N-(3-phenylpropanoyl)-(R)-nipecotinyl]-(R)-lysinyl)-benzothiazole) of the same compound?
**A.** The value was “effective at preventing cell death”.
